Results taken from PubChem BioAssay (NCI).
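Values below derive from 48-hour exposures of cells grown in 96-well plates, with endpoints linearly interpolated between the two concentrations bracketing the appropriate inhibition level. Definition used: TGI = concentration required for complete inhibition of growth.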

Tests used:
Experiment in all cases: DTP human tumour cell line panel, 48 h
[1] = tested on: HCT-116 colon
[2] = tested on: HL-60(TB) leukemia
[3] = tested on: KM12 colon
[4] = tested on: SF-268 CNS
[5] = tested on: SF-295 CNS
[6] = tested on: SK-MEL-2 melanoma
[7] = tested on: TK-10 renal
[8] = tested on: U251 CNS
[9] = tested on: UO-31 renal
[10] = tested on: MALME-3M melanoma

SMILES	TGI [1] [µM]	TGI [2] [µM]	TGI [3] [µM]	TGI [4] [µM]	TGI [5] [µM]	TGI [6] [µM]	TGI [7] [µM]	TGI [8] [µM]	TGI [9] [µM]	TGI [10] [µM]
COC(CC1(CCNc2ccccc2)C(=O)N(COCC[Si](C)(C)C)c2ccccc21)OC (stereo not drawn)	32.5	98.2	23.8	26.3	32	29.9	28.9	> 61	29.6	
O=C(O)c1cc(Nc2c(O)c3c(c(O)c2Cl)C(=O)C=CC3=O)ccc1O	> 10		> 10	> 10	> 10		> 10	> 10	> 10	> 10
O=c1oc2ccccc2c(O)c1C(c1ccc(O)cc1)c1c(O)c2ccccc2oc1=O	> 100		> 100	67.2		> 100	> 100	> 100	> 100	> 100
CCn1c(O)c(C(=O)NC(C)c2ccc([N+](=O)[O-])cc2)c(=O)n(CC)c1=S (stereo not drawn)	4.45	5.11	5.58	15.3	3.7	2.72	17	13.1	5.58	
Oc1ccc(O)c(Sc2nnc(CCCCCCCCc3nnc(Sc4cc(O)ccc4O)o3)o2)c1	32.5		> 100	> 100	> 100	> 100	> 100	> 100	32	> 100
CC1Cc2c(cc(N)nc2Br)NC1=O (stereo not drawn)	> 100		> 100	> 100	> 100	> 100	> 100	> 100	> 100	> 100
Cc1cc(C)c(C#N)c(SC(=S)NC(=O)c2ccccc2)n1	> 100		> 100	> 100		> 100	> 100	> 100	> 100	> 100
COc1ccc(C[C@H]2COC(=O)[C@@H]2Cc2ccccc2)cc1OC	> 100		> 100		> 100		> 100	> 100		> 100
OCC1c2ccccc2-n2nc(-c3ccccc3)c(O)c21 (stereo not drawn)			46.1	> 100	> 100	43.9	34.1	52.8	92.4	33.3
Cc1ccc(S(=O)(=O)CC2CCCn3c2c(C#N)c2ccccc23)cc1 (stereo not drawn)	> 100		> 100	> 100	> 100	> 100	> 100	> 100	> 100	
CC(=O)c1cc(S(=O)(=O)c2ccc(O)c(C(C)=O)c2)ccc1O	> 100		> 100	> 100	> 100	> 100	> 100	> 100	> 100	> 100
CN1C(=O)C(CCO)(C(C)(C)C)c2ccccc21 (stereo not drawn)	> 100	> 100	> 100	> 100	> 100	> 100		> 100	> 100	
CC(C)NCCNC(=O)c1ccccc1Nc1c(Cl)cccc1Cl	23.4	24.8	36	34.1	28.5		24	16.8	21.8	
c1cc2c3c(c1)[C@@H]1O[C@@H]1c1cccc(c1-3)[C@@H]1O[C@H]21	38.5		44	33.6	> 100	42.5	> 100	33	30.3	29.6
C/C=C\C(CC(=O)NCCc1c[nH]c2ccccc12)CC(=O)OC (stereo not drawn)	> 100		> 100	> 100	> 100	> 100	> 100	> 100	> 100	> 100
COC(C/C=C\C=C\CC/C=C/CC(C)/C=C/C(=C\C(=O)O)CC(=O)O)/C(C)=C\C=C(/C)C(=O)O (stereo not drawn)	> 100		> 100	> 100	> 100	> 100	> 100	> 100	> 100	> 100
C/C(=C\COP(=O)(O)OP(=O)(O)O)CC/C=C(\C)CNc1ccccc1	> 50		> 50	> 50	> 50	> 50	> 50	> 50	> 50	
S=c1oc(CCCCCCCCc2nn(CNc3ccc(Cl)cc3)c(=S)o2)nn1CNc1ccc(Cl)cc1	> 100		> 100	> 100	> 100	> 100	> 100	> 100	> 100	> 100
c1ccc2c(c1)ccc1nc(-c3ccc4c(c3)OCO4)c3c(c12)CCC3	> 100		> 100	> 100	> 100	> 100		> 100	> 100	> 100
CCCCNC(=S)Nc1nc(C(=O)NNC(=S)NCc2ccccc2)cs1	> 100		> 100	> 100	> 100	> 100	> 100	> 100	> 100	> 100
